Source: PMC3425665 (Journal of the American Chemical Society, 2012)

Molecular target: aspartate aminotransferase (AAT), K258A mutant (Escherichia coli, UniProt P00509, K246A, form not given)
Assay: X-ray crystallography
Format: binding
Conditions: covalent external aldimine with L-aspartate; replaces PLP

Sequence of aspartate aminotransferase (AAT), K258A mutant (P00509 whole entry K246A, form open): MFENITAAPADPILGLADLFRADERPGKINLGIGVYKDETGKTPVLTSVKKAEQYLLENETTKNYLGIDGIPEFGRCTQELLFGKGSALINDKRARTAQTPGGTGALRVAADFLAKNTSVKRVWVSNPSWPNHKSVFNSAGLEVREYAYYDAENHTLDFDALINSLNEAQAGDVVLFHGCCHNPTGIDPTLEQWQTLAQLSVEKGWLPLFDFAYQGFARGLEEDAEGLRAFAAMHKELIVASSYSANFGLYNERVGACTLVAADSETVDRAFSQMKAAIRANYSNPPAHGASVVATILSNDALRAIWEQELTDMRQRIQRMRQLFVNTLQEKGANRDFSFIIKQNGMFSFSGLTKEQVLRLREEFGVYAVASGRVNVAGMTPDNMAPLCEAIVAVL

Structure (SMILES): Cc1ccc(COP(=O)(O)O)c(C=O)c1O [deazaPLP]
- X-ray crystallography (1.5 Å): structure of the K258A/deazaPLP/L-aspartate external aldimine intermediate determined here by X-ray crystallography
